What was measured:
B16F10 cells = assay: Melanin content in B16F10 cells after UV irradiation; assay type: cell-based, murine; details: 10 μM for 72 hrs prior to UV irradiation; UV alone 33.80±4.6% increase over non-UV cells (7.4±0.3 μg/mg protein)
From the text: (§1) The dermal fibroblast cell line CG1639 was obtained from the BCRC (Bioresource Collection and Research Center) and cultured in Dulbecco's modified Eagle media (DMEM, Gibco by Invitrogen) with 1% antibiotic antimycotic (Gibco by Invitrogen) and 15% fetal bovine serum (Gibco by Invitrogen). The fetal rat skin keratinocyte, FRSK cell line was obtained from the Japan HSRRB (Health Science Research Resources Bank) and cultured in Eagle's minimal essential media (MEM, Gibco by Invitrogen) supplemented with 10% fetal bovine serum (FBS) (Gibco by Invitrogen) and 1% antibiotic antimycotic (Gibco by Invitrogen). B16F10 cells, a murine melanoma cell line, were purchased from American Type Culture Collection (ATCC, Rockville, Md., USA) and was cultured in Eagle's Minimum Essential Medium (MEM; Sigma, St. Louis, Mo.) supplemented with 10% fetal bovine serum (FBS; HyClone Lab. Inc., Logan, Utah), 0.02% antibiotic-antimycotic liquid (penicillin, 10 000 U mL^−1; streptomycin, 10 000 μg mL^−1 and amphotericin B, 25 μg mL^−1; Invitrogen, Carlsbad, Calif.).
(§2) To investigate the induction of melanogenesis and the oxidative stress by direct UV irradiation, melanoma cells and keratocytes were irradiated with 8 J cm^−2 of UVA (FL15BLB, 352 nm, 15 W; Toshiba, Tokyo, Japan) and 10 mJ cm^−2 of UVB (G15T8E, 306 nm, 15 W; Sankyo Denki, Tokyo, Japan) in a HANKS' balanced salt solution (Sigma). The UV intensity was measured by using a Model UVX Digital Radiometer (UVP Inc., Upland, Calif.).
(§3) B16F10 and FRSK cells were exposed to Hepasim compounds A-D by two different concentrations (3 or 10 μM) for 72 hrs prior to UVA irradiation. DMEM was replaced with phosphate buffered saline (PBS) to avoid generation of medium-derived toxic photoproducts prior to UV irradiation. Cells were collected 24 hrs after UVA irradiation and assayed. For preparation of cell lysate, the harvested cells were pelleted by centrifugation and lysed in lysis buffer containing 50 mM Tris-HCl, 10 mM ethylene diaminetetraacetic acid (EDTA), 1% (v/v) Tri-ton X-100, phenylmethylsulfonyl fluoride (PMSF) (100 mg/ml) and pepstatin A (1 mg/ml) in DMSO and leupeptin (1 mg/ml) in H2O, pH 6.8. The cells were centrifuged at 10,000 rpm for 10 min and the total cell lysate was collected and stored at −80° C.
In order to measure the melanin contents, B16F10 cells were sonicated on ice and the mixture was centrifuged (25 000 g, 10 min, 4° C.). The supernatant was transferred, and pellets were dissolved in 0.85 N KOH at 60° C. for 20 min. Standard melanin (Sigma) was incubated in parallel. Spectrophotometric analysis of melanin content was then performed at an absorbance of 405 nm

cirrhotic animals = assay: Redox status (Glutathione level, GSH:GSSG ratio) in cirrhotic animals; assay type: in vivo, Wistar rats; details: compound B 7 mg/kg, compound C 14 mg/kg
Method: A commercially available kit (# K264-100, BioVision) was used to measure glutathione (GSH), and oxidized glutathione (GSSG). […] The assay was conducted with several modifications to the manufacturer's directions. Briefly, cellular pellet (˜10 mg) was homogenized immediately, and take 60 μl of each sample to a prechilled tube containing Perchloric Acid and centrifuged at 13,000×g for 2 min, collect supernatant and stored at −80° C. until analyzed. The assay was conducted as described by the manufacturer. Briefly, cold 3N KOH was added to each sample mixed, and centrifuged at 13,000×g for 10 min. Ten microliters of each sample and the appropriate buffer and 90 μl of Assay Buffer to detect GSH and 10 μl of glutathione reductase were mixed to detect total glutathione and 10 μl of GSH Quencher to detect GSSG and incubated at room temperature for 40 min and the absorbance of each sample was read at 340/420 nm for 3 min. The protein concentration for each sample was determined via a DC protein concentration assay (Bio-Rad). Signals from each sample were normalized to the corresponding protein content of that sample.

tyrosinase = target: T1, tyrosinase (Mus musculus, UniProt P11344); assay: Cellular tyrosinase activity assay (L-DOPA oxidation) in B16F10 cells exposed to UV; assay type: cell-based, murine; details: UV alone 52.55±4.36% increase over non-UV control (3.0±0.5 U/mg protein)
T1 construct: endogenous in cells; host or cells: B16F10 murine melanoma cells (ATCC), total cell lysate
T1 sequence (P11344 19-533): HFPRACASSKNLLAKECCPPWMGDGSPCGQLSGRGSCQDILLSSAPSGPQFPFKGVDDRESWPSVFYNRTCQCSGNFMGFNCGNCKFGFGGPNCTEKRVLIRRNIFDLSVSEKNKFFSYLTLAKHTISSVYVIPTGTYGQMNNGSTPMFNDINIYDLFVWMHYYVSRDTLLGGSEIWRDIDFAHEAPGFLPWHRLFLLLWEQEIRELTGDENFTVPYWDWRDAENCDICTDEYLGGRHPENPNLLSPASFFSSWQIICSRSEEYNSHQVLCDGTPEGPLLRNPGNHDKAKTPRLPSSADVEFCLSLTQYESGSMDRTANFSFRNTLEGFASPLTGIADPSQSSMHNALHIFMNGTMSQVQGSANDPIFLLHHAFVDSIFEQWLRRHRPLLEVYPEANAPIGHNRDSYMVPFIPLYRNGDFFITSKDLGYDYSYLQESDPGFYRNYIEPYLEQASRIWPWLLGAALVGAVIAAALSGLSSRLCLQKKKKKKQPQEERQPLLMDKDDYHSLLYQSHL
From the text: as §1, §2, §3
The rate of L-DOPA oxidation was measured to assess cellular tyrosinase activity in B16F10 cells exposed to UV. The assay was performed as below described, 20 mM L-DOPA used as the substrates was added to each lysate in a 96-well plate and absorbance of dopachrome formation was measured spectrophotometrically at 475 nm every 10 min for 1 h at 37° C. by a spectrophotometer. The tyrosinase activity was calculated by comparison to a standard curve using tyrosinase (2034 U/mg) and was expressed as unit/mg protein. The data are expressed as a percentage of the tyrosinase activity (unit/mg protein) of non-irradiated and untreated control cells (100%).

Row | tyrosinase activity in UV-irradiated B16F10 cells (tyrosinase; 3 μM) | tyrosinase activity in UV-irradiated B16F10 cells (tyrosinase; 10 μM) | SMILES | melanin production in UV-irradiated B16F10 cells (B16F10 cells) | Redox status: GSH:GSSG ratio (cirrhotic animals) | Redox status: Glutathione level (cirrhotic animals)
1 | 51.65±4.6% | 42.32±6.7% | CC(C)=CCOc1ccc(C2=C(CC(C)C)C(=O)NC2=O)cc1 [Compound B, 3-isobutyl-4-[4-(3-methyl-2-butenyloxy)phenyl]-1H-pyrrol-2,5-dione] | 29.40±4.3% | significantly improved | significantly improved
2 | 48.55±3.7% | 40.55±3.9% | CC(C)=CCOc1ccc(C2=C(CC(C)C)C(=O)N(O)C2=O)cc1 [Compound C, 3-isobutyl-4-[4-(3-methyl-2-butenyloxy)phenyl]-1H-pyrrol-1-ol-2,5-dione] | 28.92±5.3% | significantly improved | significantly improved
